We go through 82 molecules from US10940139B2, “Compounds that interact with the Ras superfamily for the treatment of cancers, inflammatory diseases, rasopathies, and fibrotic disease” (Shy Therapeutics LLC, priority 2017, dated 2021).

The first assay deals with KRas G12D/Q61H double mutant (Homo sapiens (Human), UniProt P01116, G12D/Q61H). In words: Ras GTP binding domain inhibition assay (labeled GTP). As to conditions: 20 μM compound; KRas G12D/Q61H double mutant; read-out: % Inhibition at 20 μM of K-Ras mutant and wild-type protein, KRas G12D Q61H. Summed up: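 Labelled-GTP binding: plate-captured His-KRas protein was pre-exposed to compound for 3 h at room temperature (single 20 μM point or dilution series, 1% DMSO, Tris pH 7.5/MgCl2/DTT buffer). Cy3- or Cy5-GTP was then added for 45 min. Washed wells were read for retained fluorescence to give inhibition or IC50.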
KRas G12D/Q61H double mutant, sequence (P01116-2 other isoform, or with tags, fused parts or gaps G12D/Q61H): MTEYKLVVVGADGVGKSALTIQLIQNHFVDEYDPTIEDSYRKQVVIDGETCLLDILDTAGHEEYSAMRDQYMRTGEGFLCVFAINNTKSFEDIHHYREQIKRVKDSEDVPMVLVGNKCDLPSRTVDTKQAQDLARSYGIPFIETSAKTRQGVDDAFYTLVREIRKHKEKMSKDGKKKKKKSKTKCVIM
`CCOc1ccc(Oc2ccc(C(F)(F)F)cc2NCc2nc(C)no2)cc1`: the inhibition at 20 µM lay in the range of 51 to 75%.

Consider `CCOc1ccc(S(=O)(=O)N(CC(=O)N2CCCc3ccccc32)Cc2ccco2)cc1`, for which the inhibition at 20 µM lay within 25 to 50%.

On to `O=c1[nH]c(NCC(O)c2ccccc2)nc2ccccc12` (centres unmarked), for which the inhibition at 20 µM lay within 1 to 25%.

With `CCOC(=O)c1c(NC(=O)c2c(N)n(CCCOC)c3nc4ccccc4nc23)sc2c1CCCC2`, the inhibition at 20 µM was 1 to 25%.

Consider `CN(Cc1ccc(S(=O)(=O)N(C)C)o1)c1ccccc1-c1ccccc1`, for which the inhibition at 20 µM was in the range of 1 to 25%.

As to `COc1ccc(COCC(CNC(=O)c2cc(C)cc(C)c2)OC(=O)c2cc(C)cc(C)c2)cc1` (centres unmarked), the inhibition at 20 µM fell in the range of 25 to 50%.

`CC(C)(COc1ncccc1C(F)(F)F)Nc1nccc(C(F)(F)F)n1`: the inhibition at 20 µM lay in the range of 25 to 50%.

Consider `CCC(C)Oc1cc(-c2nc(C3CCCN3C(=O)OC(C)(C)C)no2)ccn1` (centres unmarked), for which the inhibition at 20 µM was in the range of 25 to 50%.

On to `COC(=O)c1ccc(Oc2ccc(S(=O)(=O)N3CCCCC3)cc2NCc2cc(C)on2)cc1`, for which the inhibition at 20 µM was 25 to 50%.

Consider `CCCOc1ccc2ccccc2c1CN(C)C(=O)C1CCCN(c2ncccn2)C1` (centres unmarked), for which the inhibition at 20 µM lay within 25 to 50%.

Regarding `COC(C)c1nc(CN(Cc2ccc(C#N)cc2)Cc2cccc(F)c2)cs1` (centres unmarked), the inhibition at 20 µM lay within 25 to 50%.

In the case of `CCOc1ccc(Nc2ccc([N+](=O)[O-])cc2S(=O)(=O)N(CC)CC)cc1`, the inhibition at 20 µM fell in the range of 25 to 50%.

For `CCOCCOc1ccc(Br)cc1CNCc1cccc(N2CC=CC2)c1`, the inhibition at 20 µM was in the range of 25 to 50%.

In the case of `CC(=O)c1ccccc1OCCN(c1nccs1)S(=O)(=O)c1ccccc1`, the inhibition at 20 µM is 25 to 50%.

Regarding `O=C(COc1ccccc1C(=O)c1cnn(-c2ccccc2)c1)NCC1CCCCC1`, the inhibition at 20 µM is 25 to 50%.

In the case of `OCCN(Cc1ccc(Cl)c(Cl)c1)c1ncc(Br)cn1`, the inhibition at 20 µM fell in the range of 1 to 25%.

As to `CN(C)S(=O)(=O)c1ccc(OCCn2c(=O)c(N3CCCCC3)c(N)n(C)c2=O)cc1`, the inhibition at 20 µM fell in the range of 1 to 25%.

Take `CCCOc1nc2ccccc2nc1N1CCN(c2ccccc2F)CC1`: the inhibition at 20 µM lay within 25 to 50%.

For `CCOC(=O)c1c(-c2ccc(Br)cc2)csc1/N=C/N(C)C`, the inhibition at 20 µM was in the range of 25 to 50%.

Regarding `CCN(c1ncc(C(=O)OC)s1)S(=O)(=O)c1ccc(C)c(C)c1`, the inhibition at 20 µM was 51 to 75%.

As to `COc1ccccc1CN(Cc1coc(-c2ccc(F)cc2)n1)Cc1cccs1`, the inhibition at 20 µM was 1 to 25%.

As for `CCN(CC)S(=O)(=O)c1cccc(C(=O)N2N=C(c3ccccc3)CC2(O)C(F)(F)F)c1` (centres unmarked), the inhibition at 20 µM fell in the range of 25 to 50%.

Take `COc1ccc(-c2csc3nc(C)nc(N(C)Cc4ccco4)c23)cc1OC`: the inhibition at 20 µM lay within 25 to 50%.

For the molecule `Cc1occc1C(=O)OCC(COC(=O)c1ccoc1C)NC(=O)OC(C)(C)C`, the inhibition at 20 µM is 25 to 50%.

Consider `CC[S+]([O-])c1ccccc1C(=O)OCc1ccc(-c2ccccc2C#N)cc1` (centres unmarked), for which the inhibition at 20 µM was 25 to 50%.

The assay is the same for the next values; noted with them: 20 μM compound; read-out: % Inhibition at 20 μM KRas G12D Q61H.
For the molecule `CCc1cc2c(=O)[nH]c(-c3ccccn3)nc2s1`, the inhibition at 20 µM lay in the range of 25 to 50%.

Regarding `COCCOCCN(C)C(=O)c1csc2c(O)nc(-c3ccccn3)nc12` [drawing 2686], the inhibition at 20 µM was 51 to 75%.

`CC(C1CC1)N(CC(F)(F)F)C(=O)Cc1ccc(Cl)cc1Cl` (centres unmarked): the inhibition at 20 µM is 25 to 50%.

Take `COc1ccc(-c2csc(C3CC3)n2)cc1Cl`: the inhibition at 20 µM fell in the range of 25 to 50%.

On to `Cc1ccc(C)c(OCc2nnc(SCC(C)C(=O)c3ccc(F)c(F)c3)o2)c1` (centres unmarked), for which the inhibition at 20 µM was in the range of 25 to 50%.

Regarding `Cc1cc(C)n(CCCNC(=O)c2cc(S(=O)(=O)N3CCOCC3)ccc2N2CCCC2)n1`, the inhibition at 20 µM is 25 to 50%.

On to `O=C(c1csc2c(O)nc(-c3ccccn3)nc12)N1CCOC(c2ccc(Cl)cc2)C1` (centres unmarked) [drawing 2730], for which the inhibition at 20 µM lay in the range of 25 to 50%.

Regarding `N#Cc1ccc(OCCSc2nnc(COc3ccc(F)cc3)o2)cc1`, the inhibition at 20 µM lay in the range of 25 to 50%.

Take `COc1ccc2c(c1)CCC2C(=O)Nc1nc(-c2ccccn2)nc2sccc12` (centres unmarked) [drawing 2818]: the inhibition at 20 µM was 1 to 25%.

Consider `COC(=O)CCN(Cc1ccc(Oc2ccc(OC)cc2)cc1)C1CCOCC1`, for which the inhibition at 20 µM is 1 to 25%.

As for `COc1ccnc(CN2CCOC(C)(c3ccccc3)C2)c1OC` (centres unmarked), the inhibition at 20 µM fell in the range of 25 to 50%.

Turning to `Cc1ccccc1CC(=O)N(CC(F)(F)F)C1CCCOC1` (centres unmarked), the inhibition at 20 µM lay in the range of 1 to 25%.

Regarding `Cc1ccc(-c2cc(C(=O)N(C3CC3)C(C)c3ccco3)on2)cc1` (centres unmarked), the inhibition at 20 µM lay within 25 to 50%.

On to `COCCN(c1nc2ccccc2s1)S(=O)(=O)c1ccccc1`, for which the inhibition at 20 µM lay in the range of 25 to 50%.

Turning to `Nc1nc(-c2ccccn2)nn1C(=O)c1ccc(N2CCNC2=O)cc1`, the inhibition at 20 µM was 25 to 50%.

`COCC1CCN(C(=O)c2csc3c(O)nc(N)nc23)CC1` [drawing 2659]: the inhibition at 20 µM lay in the range of 1 to 25%.

Consider `O=C(c1cccc(S(=O)(=O)N2CCOCC2)c1)N1N=C(c2ccccc2)CC1(O)C(F)(F)F` (centres unmarked), for which the inhibition at 20 µM lay in the range of 25 to 50%.

As for `CC(C)Cc1cc(C(=O)Nc2cc(-c3cccnc3)n[nH]2)[nH]n1`, the inhibition at 20 µM was in the range of 1 to 25%.

As to `COc1cnc(CNC(=O)Cn2cnc3nc(-c4ccccn4)nc(N4CCOCC4)c32)[nH]c1=O` [drawing 2824], the inhibition at 20 µM is 1 to 25%.

As for `CN1CC(Nc2nc(-c3ccccn3)nc3c2CCC3)CCC1=O` (centres unmarked), the inhibition at 20 µM fell in the range of 25 to 50%.

Take `Cc1c(C(=O)Nc2nc(-c3ccccn3)cs2)oc2ccccc12`: the inhibition at 20 µM fell in the range of 25 to 50%.

On to `O=c1[nH]c(-c2ccnc(Oc3ccccc3Cl)c2)nc2ccsc12`, for which the inhibition at 20 µM lay in the range of 1 to 25%.

`Cc1c(-c2ccccc2)sc2[nH]c(-c3ccccn3)nc(=O)c12`: the inhibition at 20 µM lay within 25 to 50%.

As to `CC(C)Cc1cc(C(=O)Nc2cc(-c3ccncc3)nn2C)[nH]n1`, the inhibition at 20 µM was in the range of 1 to 25%.

Take `O=C(CCc1ccc(F)cc1)Nc1nnc(-c2ccccn2)[nH]1`: the inhibition at 20 µM is 25 to 50%.

As to `O=C(CCc1nc2ccccc2s1)Nc1nnc(-c2ccccn2)[nH]1`, the inhibition at 20 µM fell in the range of 25 to 50%.

For the molecule `O=C(Nc1nnc(-c2ccccn2)[nH]1)c1ccc(N2CCCCC2=O)cc1`, the inhibition at 20 µM fell in the range of 25 to 50%.

Turning to `O=S(=O)(Oc1c(Cl)cc(Cl)c2cccnc12)N1CCCCCC1`, the inhibition at 20 µM was 25 to 50%.

For the molecule `CN(CC(=O)N1CCOCC1)C(=O)c1ccc(COc2ccc(F)cc2)o1`, the inhibition at 20 µM is 1 to 25%.

Take `Cc1nc(-c2ccccn2)[nH]c(=O)c1CCO`: the inhibition at 20 µM lay in the range of 25 to 50%.

With `CC(C)CCS(=O)(=O)CC(=O)Nc1nnc(-c2ccccn2)[nH]1`, the inhibition at 20 µM lay in the range of 25 to 50%.

For `CN(Cc1nc2ccccc2n1C)C(=O)c1cccc(Cl)n1`, the inhibition at 20 µM fell in the range of 1 to 25%.

Take `COc1ccc(CC(=O)Nc2nc(-c3ccccn3)cs2)cc1`: the inhibition at 20 µM was 25 to 50%.

`O=C(c1csc2c(O)nc(-c3ccccn3)nc12)N1CCN(c2cccc(O)c2)CC1`: the inhibition at 20 µM is 25 to 50%.

For the molecule `CN(C)S(=O)(=O)c1ccc(CN2CCCc3cc(OC(F)(F)F)ccc32)o1`, the inhibition at 20 µM was in the range of 25 to 50%.

In the case of `N#Cc1ccc(N2CCCC2c2ccco2)cc1C(F)(F)F` (centres unmarked), the inhibition at 20 µM lay in the range of 1 to 25%.

Turning to `N#Cc1csc2nc(-c3ccccn3)nc(N3CCOCC3)c12` [drawing 2819], the inhibition at 20 µM was 25 to 50%.

As to `O=c1[nH]c(-c2ncccn2)nc2cc(-c3cccc(Cl)c3)sc12`, the inhibition at 20 µM was 25 to 50%.

As for `CS(=O)(=O)c1cccc(C(=O)N2CCCc3c(O)nc(-c4ccccn4)nc32)c1` [drawing 2647], the inhibition at 20 µM lay within 51 to 75%.

As for `CC(C)CCC(=O)Nc1nnc(-c2ccccn2)[nH]1`, the inhibition at 20 µM lay in the range of 25 to 50%.

On to `N#Cc1ccccc1CN1CCN(c2cccc(C(F)(F)F)c2)CC1`, for which the inhibition at 20 µM was 1 to 25%.

`CCN(CC(=O)Nc1ccc(OC)cc1)Cc1coc(-c2ccc(C)cc2C)n1`: the inhibition at 20 µM was in the range of 25 to 50%.

For the molecule `Cc1cc(N2CCN(c3cccc(C(F)(F)F)c3)CC2)n2ncnc2n1`, the inhibition at 20 µM was 25 to 50%.

For the molecule `O=C1COc2cc(C(=O)Nc3nc(-c4ccccn4)cs3)ccc2N1`, the inhibition at 20 µM was 25 to 50%.

The assay is the same for the next values; noted with them: 20 μM; read-out: KRas G12D Q61H % Inh.
For `Cc1nc(-c2ccccn2)nc(O)c1CCC(=O)Nc1ccc(C(C)C)cc1` [drawing 2598], the inhibition at 20 µM fell in the range of 51 to 75%.

Take `Cc1nc(-c2ccccn2)nc(O)c1CCC(=O)NCC1COc2ccccc2O1` (centres unmarked) [drawing 2599]: the inhibition at 20 µM lay in the range of 25 to 50%.

`O=C(Cc1ccccc1F)Nc1nnc(-c2ccccn2)[nH]1`: the inhibition at 20 µM lay within 51 to 75%.

On to `O=S(=O)(Oc1cc(C(F)(F)F)cc(C(F)(F)F)c1)N1CCc2ccccc2C1` [drawing 2627], for which the inhibition at 20 µM was in the range of 51 to 75%.

For the molecule `CC(Oc1ccccc1C#N)C(=O)Nc1nnc(-c2ccccn2)[nH]1` (centres unmarked) [drawing 2510], the inhibition at 20 µM lay within 51 to 75%.

For `O=C(Nc1nnc(-c2ccccn2)[nH]1)c1ccc(CN2C(=O)CCC2=O)cc1` [drawing 2481], the inhibition at 20 µM fell in the range of 51 to 75%.

With `O=C(Nc1nnc(-c2ccccn2)[nH]1)c1ncoc1-c1cccs1` [drawing 2501], the inhibition at 20 µM was 51 to 75%.

`CC(C)COC(C)C(=O)Nc1nnc(-c2ccccn2)[nH]1` (centres unmarked) [drawing 2505]: the inhibition at 20 µM was in the range of 51 to 75%.

`COc1ccc(CN(CC[S+]([O-])c2cc(Cl)ccc2Cl)C2CC2)cc1` (centres unmarked) [drawing 2625]: the inhibition at 20 µM is 25 to 50%.

`COC(=O)C(C)CN(Cc1cc(Br)ccc1[N+](=O)[O-])C1CC1` (centres unmarked) [drawing 2629]: the inhibition at 20 µM lay within 25 to 50%.

As for `CCC(C)(C)c1ccc(OCCCC(=O)NC(C(=O)OC)C(C)C)c(C(C)(C)CC)c1` (centres unmarked) [drawing 2619], the inhibition at 20 µM lay in the range of 25 to 50%.

Regarding `O=C(Nc1nnc(-c2ccccn2)[nH]1)c1cccc(N2CCCS2(=O)=O)c1` [drawing 2540], the inhibition at 20 µM lay in the range of 51 to 75%.

Still in this assay, the particulars now being: at 20 μM; read-out: KRas G12D Q61H % Inh.
As to `COc1cnc(CNC(=O)c2c(C)sc3c(O)nc(-c4ccccn4)nc23)[nH]c1=O` [drawing 3841], the inhibition at 20 µM was 0%.

The same assay, now with this note: serial dilution; read-out: KRas G12D Q61H (classes E-H, IC50).
As usually defined, the IC50 is the concentration that gives 50% inhibition. In the case of `CS(=O)(=O)c1cccc(C(=O)N2CCCc3c(O)nc(-c4ccccn4)nc32)c1` [drawing 2647], the IC50 was in the range of 5 to 10 µM.
